Converted amounts (≈) assume the structure as drawn. Residues, ends and D or L forms follow the SMILES beside them.
Assays:
[1] = system: Escherichia coli (CMCC(B)44102-2-6); experiment: microbe, parasite or virus in culture; settings: 10^6 CFU/ml, 96-well plate, overnight 37 °C, visual clarity, performed at least three times
Description: (§1) Viba 11, originally discovered in Viola baoshanensis[39] and found in other plants such as Viola tricolor[40], Viola betonicifolia, and Viola philippica, lacks biological activity studies. […] All purified cyclotides underwent antibacterial testing against Gram-positive bacterium Staphylococcus aureus (CMCC(B)26003-2-10) and Bacillus subtilis (CMCC(B)63501), Gram-negative bacteria, including Acinetobacter baumannii (ATCC19606), Escherichia coli (CMCC(B)44102-2-6), and Salmonella paratyphi (CMCC(B)50094-2-9).
(§2) Bacterial fluids are cultured overnight at 37 °C. The next day, the bacterial liquids are diluted to a concentration of 10^6 CFU/ml. Prepare different concentrations of cyclotide drugs and kanamycin sulfate in advance, and sequentially add the drugs and bacterial liquid to the 96-well plate. Negative controls consisted of sterile water and bacterial liquid. The plate is cultured overnight at 37 °C and observe whether the solution remains clear to see the growth of the bacterial suspension. Each test was performed three times at least.

[2] = system: Bacillus subtilis (CMCC(B)63501); experiment: microbe, parasite or virus in culture; settings: 10^6 CFU/ml, 96-well plate, overnight 37 °C, visual clarity, performed at least three times
Description: as §1, §2

[3] = system: Acinetobacter baumannii (ATCC19606); experiment: microbe, parasite or virus in culture; settings: Acinetobacter baumannii ATCC19606; 10^6 CFU/ml, 96-well plate, overnight 37 °C, visual clarity; performed at least three times
Description: as §1, §2

Bacillus subtilis = experiment: Time killing kinetics; type: cell-based; settings: about 10^6 CFU/mL, LB, 37 °C, colony count
Procedure: In this study, we investigated the time-kill kinetics characteristics of plant cyclotides against bacteria. […] It is worth noting that due to experimental constraints, there was a slight discrepancy of a few minutes between theoretical 0 h and actual 0 h. […] Furthermore, we also conducted time-kill kinetics studies using vija 10 against B. subtilis.
Figure 4 (A) The Acinetobacter baumannii time killing kinetics of cycloviolacin O2 at concentration of 1 MIC, 2 MIC, 4 MIC and 8 MIC at 37 °C. (B) The Bacillus subtilis time killing kinetics of vija 10 at concentration of 1 MIC, 2 MIC, 4 MIC at 37 °C. Each test was performed three times at least.
Incubate A. baumannii and B. subtilis in fresh nutrient LB broth at 37 °C until logarithmic growth stage, then dilute to approximately 10^6 CFU/mL, and incubate with cycloviolacin O2 at concentrations of 1 MIC, 2 MIC, 4 MIC, 8 MIC with A. baumannii and vija 10 at concentrations of 1 MIC, 2 MIC, 4 MIC with B. subtilis respectively. Taking the mixture at time points of 0 h, 0.5 h, 1 h, 1.5 h and 2 h, dilute and coat it to solid medium for 24 h. Count the number of colonies on solid culture medium. Each test was performed three times at least. Plotting a line graph with time on the x-axis and bacterial survival on the y-axis using GraphPad Prism 8. Statistical analysis of bacterial viability at different time points to determine the bactericidal and bacteriostatic effects of cyclotides.

CC[C@H](C)[C@@H]1NC(=O)[C@@H]2CSSC[C@@H]3NC(=O)[C@H](C(C)C)NC(=O)[C@H](CCCCN)NC(=O)[C@H](CO)NC(=O)[C@H](CO)NC(=O)[C@@H]4CSSC[C@H](NC(=O)[C@H](CO)NC(=O)[C@H](CCC(=O)O)NC(=O)CNC(=O)[C@H](CSSC[C@H](NC(=O)CNC(=O)[C@H](CC(C)C)NC(=O)[C@H](CC(C)C)NC(=O)[C@H](C)NC(=O)[C@H](CO)NC1=O)C(=O)N[C@@H](CO)C(=O)N4)NC(=O)[C@@H]1CCCN1C(=O)[C@H]([C@@H](C)CC)NC(=O)[C@H](CO)NC(=O)CNC(=O)[C@H](CC(N)=O)NC(=O)[C@H](CCCCN)NC(=O)[C@H](Cc1ccc(O)cc1)NC3=O)C(=O)N[C@@H](C(C)C)C(=O)N[C@@H](Cc1ccccc1)C(=O)N[C@@H]([C@@H](C)CC)C(=O)N1CCC[C@H]1C(=O)N2 [vija 10] (HELM PEPTIDE1{A.L.L.G.C.S.C.S.S.K.V.C.Y.K.N.G.S.I.P.C.G.E.S.C.V.F.I.P.C.I.S}$PEPTIDE1,PEPTIDE1,5:R3-20:R3|PEPTIDE1,PEPTIDE1,7:R3-24:R3|PEPTIDE1,PEPTIDE1,12:R3-29:R3|PEPTIDE1,PEPTIDE1,1:R1-31:R2$$$V2.0)
MIC [1]: > 28.5 µM | MIC [2]: 14.3 µM (≈ 45 µg/mL) | MIC [3]: 57 µM (≈ 179 µg/mL) | time of treatment to complete eradication of B. subtilis (Bacillus subtilis; 2 MIC): 2 h | time of treatment to effective killing of B. subtilis (Bacillus subtilis; 4 MIC): 1 h
